Measurements as given in PubChem BioAssay AID330 (DTP/NCI, 2004).
Values joined by “and” are separate entries in the source; they are usually repeats but may differ in a detail not shown here. Equal entries are not always repeated. Inconclusive results and toxic doses are left out.

System: P388 leukemia ip, CD2F1 mice, survival T/C
Test: NCI In Vivo Anticancer Drug Screen. Data for tumor model P388 Leukemia (intraperitoneal) in CD2F1 (CDF1) mice
Conditions: endpoint: median survival time, higher = longer survival
Outline: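 Mice carrying the transplanted tumor received test compound or vehicle. Survival was recorded in each group, and the value is the treated-group measurement divided by that of the vehicle-treated control group.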

How did the T/C (dose: 0.1 mg/kg/injection, schedule: Q04DX003 (ip), vehicle: saline) turn out when `O=C1c2ccccc2C(=O)c2c(NCCNCCO)ccc(NCCNCCO)c21` was run?
Its T/C is 108 % of control.

And the T/C (dose: 0.3 mg/kg/injection, schedule: Q04DX003 (ip), vehicle: saline)?
The T/C was 116 % of control.

What about the T/C (dose: 0.5 mg/kg/injection, schedule: Q01DX009 (ip), vehicle: water) of the same compound?
Its T/C is 165 % of control.

What about the T/C (dose: 0.5 mg/kg/injection, schedule: Q04DX003 (ip), vehicle: saline) of the same compound?
Its T/C is 118 % of control.

And the T/C (dose: 1.0 mg/kg/injection, schedule: Q01DX009 (ip), vehicle: water)?
The T/C was 167 % of control.

And the T/C (dose: 1.0 mg/kg/injection, schedule: Q04DX003 (ip), vehicle: saline)?
Its T/C is 110 % of control and 115 % of control.

And the T/C (dose: 1.25 mg/kg/injection, schedule: Q01DX009 (ip), vehicle: saline)?
Its T/C is 192 % of control.

What about the T/C (dose: 1.25 mg/kg/injection, schedule: Q01DX009 (ip), vehicle: water) of the same compound?
Its T/C is 155 % of control.

And the T/C (dose: 2.0 mg/kg/injection, schedule: Q01DX009 (ip), vehicle: saline)?
Its T/C is 199 % of control.

And the T/C (dose: 2.0 mg/kg/injection, schedule: Q04DX003 (ip), vehicle: saline)?
Its T/C is 117 % of control.

And the T/C (dose: 3.13 mg/kg/injection, schedule: Q01DX005 (ip), vehicle: saline)?
Its T/C is 169 % of control.

And the T/C (dose: 3.13 mg/kg/injection, schedule: Q01DX005 (iv), vehicle: saline)?
Its T/C is 114 % of control.

What about the T/C (dose: 3.89 mg/kg/injection, schedule: Q01DX009 (ip), vehicle: saline) of the same compound?
The T/C was 200 % of control and 261 % of control.

What about the T/C (dose: 3.89 mg/kg/injection, schedule: Q01DX009 (sc), vehicle: saline) of the same compound?
Its T/C is 118 % of control.

What about the T/C (dose: 4.0 mg/kg/injection, schedule: Q01DX009 (ip), vehicle: saline) of the same compound?
The T/C was 233 % of control.

And the T/C (dose: 4.0 mg/kg/injection, schedule: Q04DX003 (ip), vehicle: saline)?
The T/C was 117 % of control.

And the T/C (dose: 5.0 mg/kg/injection, schedule: Q01DX005 (ip), vehicle: saline)?
Its T/C is 223 % of control.

What about the T/C (dose: 5.0 mg/kg/injection, schedule: Q01DX005 (iv), vehicle: saline) of the same compound?
Its T/C is 116 % of control.

And the T/C (dose: 6.22 mg/kg/injection, schedule: Q04DX003 (iv), vehicle: saline)?
The T/C was 109 % of control and 118 % of control.

And the T/C (dose: 6.25 mg/kg/injection, schedule: Q01DX005 (ip), vehicle: saline)?
Its T/C is 205 % of control.

And the T/C (dose: 6.25 mg/kg/injection, schedule: Q01DX009 (ip), vehicle: water)?
The T/C was 156 % of control.

And the T/C (dose: 6.48 mg/kg/injection, schedule: Q01DX009 (ip), vehicle: saline)?
The T/C was 207 % of control and 245 % of control.

And the T/C (dose: 7.78 mg/kg/injection, schedule: Q01DX001 (iv), vehicle: saline)?
Its T/C is 107 % of control and 111 % of control.

What about the T/C (dose: 7.78 mg/kg/injection, schedule: Q01DX005 (ip), vehicle: saline) of the same compound?
The T/C was 261 % of control.

What about the T/C (dose: 7.78 mg/kg/injection, schedule: Q04DX003 (ip), vehicle: saline) of the same compound?
Its T/C is 181 % of control.

What about the T/C (dose: 8.0 mg/kg/injection, schedule: Q04DX003 (ip), vehicle: Klucel (hydroxypropylcellulose) (HPC)) of the same compound?
The T/C was 172 % of control.

What about the T/C (dose: 8.0 mg/kg/injection, schedule: Q04DX003 (ip), vehicle: saline) of the same compound?
Its T/C is 153 % of control.

And the T/C (dose: 10.0 mg/kg/injection, schedule: Q01DX001 (iv), vehicle: saline)?
Its T/C is 107 % of control.

And the T/C (dose: 10.0 mg/kg/injection, schedule: Q01DX005 (ip), vehicle: saline)?
Its T/C is 258 % of control.

What about the T/C (dose: 10.0 mg/kg/injection, schedule: Q04DX003 (ip), vehicle: saline) of the same compound?
Its T/C is 178 % of control.

And the T/C (dose: 10.0 mg/kg/injection, schedule: Q04DX003 (iv), vehicle: saline)?
Its T/C is 108 % of control.

What about the T/C (dose: 10.4 mg/kg/injection, schedule: Q04DX003 (ip), vehicle: saline) of the same compound?
Its T/C is 196 % of control and 208 % of control.

What about the T/C (dose: 10.4 mg/kg/injection, schedule: Q04DX003 (iv), vehicle: saline) of the same compound?
The T/C was 117 % of control.

What about the T/C (dose: 10.8 mg/kg/injection, schedule: Q01DX009 (ip), vehicle: saline) of the same compound?
The T/C was 209 % of control.

And the T/C (dose: 10.8 mg/kg/injection, schedule: Q01DX009 (sc), vehicle: saline)?
Its T/C is 178 % of control.

What about the T/C (dose: 12.5 mg/kg/injection, schedule: Q01DX005 (ip), vehicle: saline) of the same compound?
The T/C was 241 % of control.

What about the T/C (dose: 12.5 mg/kg/injection, schedule: Q01DX009 (ip), vehicle: water) of the same compound?
Its T/C is 187 % of control.

What about the T/C (dose: 12.5 mg/kg/injection, schedule: Q04DX003 (ip), vehicle: saline) of the same compound?
The T/C was 176 % of control.

What about the T/C (dose: 13.0 mg/kg/injection, schedule: Q01DX001 (iv), vehicle: saline) of the same compound?
Its T/C is 111 % of control and 112 % of control.

What about the T/C (dose: 13.0 mg/kg/injection, schedule: Q01DX005 (iv), vehicle: saline) of the same compound?
The T/C was 161 % of control.

And the T/C (dose: 13.0 mg/kg/injection, schedule: Q04DX003 (ip), vehicle: saline)?
Its T/C is 156 % of control and 203 % of control.

What about the T/C (dose: 13.8 mg/kg/injection, schedule: Q04DX003 (ip), vehicle: saline) of the same compound?
The T/C was 209 % of control.

And the T/C (dose: 15.0 mg/kg/injection, schedule: Q01DX009 (ip), vehicle: saline)?
The T/C was 113 % of control.

And the T/C (dose: 16.0 mg/kg/injection, schedule: Q01DX009 (ip), vehicle: saline)?
Its T/C is 177 % of control.

And the T/C (dose: 16.0 mg/kg/injection, schedule: Q04DX003 (ip), vehicle: Klucel (hydroxypropylcellulose) (HPC))?
Its T/C is 175 % of control.

And the T/C (dose: 17.3 mg/kg/injection, schedule: Q04DX003 (ip), vehicle: saline)?
The T/C was 216 % of control and 241 % of control.

And the T/C (dose: 18.0 mg/kg/injection, schedule: Q01DX009 (sc), vehicle: saline)?
The T/C was 205 % of control.

What about the T/C (dose: 20.0 mg/kg/injection, schedule: Q01DX001 (ip), vehicle: saline) of the same compound?
Its T/C is 163 % of control.

What about the T/C (dose: 20.0 mg/kg/injection, schedule: Q01DX001 (iv), vehicle: saline) of the same compound?
The T/C was 115 % of control.

What about the T/C (dose: 20.0 mg/kg/injection, schedule: Q01DX005 (iv), vehicle: saline) of the same compound?
The T/C was 173 % of control.

And the T/C (dose: 21.6 mg/kg/injection, schedule: Q01DX001 (ip), vehicle: saline)?
Its T/C is 178 % of control and 213 % of control.

What about the T/C (dose: 21.6 mg/kg/injection, schedule: Q01DX001 (iv), vehicle: saline) of the same compound?
Its T/C is 117 % of control.

And the T/C (dose: 24.0 mg/kg/injection, schedule: Q04DX003 (ip), vehicle: saline)?
Its T/C is 116 % of control.

What about the T/C (dose: 25.0 mg/kg/injection, schedule: Q01DX005 (iv), vehicle: saline) of the same compound?
Its T/C is 178 % of control.

What about the T/C (dose: 25.0 mg/kg/injection, schedule: Q01DX009 (ip), vehicle: water) of the same compound?
Its T/C is 122 % of control.

And the T/C (dose: 25.0 mg/kg/injection, schedule: Q04DX003 (ip), vehicle: Klucel (hydroxypropylcellulose) (HPC))?
The T/C was 157 % of control.

And the T/C (dose: 25.0 mg/kg/injection, schedule: Q04DX003 (ip), vehicle: saline)?
The T/C was 246 % of control.

And the T/C (dose: 28.8 mg/kg/injection, schedule: Q04DX003 (ip), vehicle: saline)?
Its T/C is 252 % of control.

And the T/C (dose: 30.0 mg/kg/injection, schedule: Q01DX009 (sc), vehicle: saline)?
The T/C was 227 % of control.

What about the T/C (dose: 32.0 mg/kg/injection, schedule: Q04DX003 (ip), vehicle: Klucel (hydroxypropylcellulose) (HPC)) of the same compound?
The T/C was 114 % of control.

And the T/C (dose: 32.0 mg/kg/injection, schedule: Q04DX003 (ip), vehicle: saline)?
Its T/C is 166 % of control.

And the T/C (dose: 36.0 mg/kg/injection, schedule: Q01DX001 (ip), vehicle: saline)?
Its T/C is 209 % of control and 233 % of control.

And the T/C (dose: 36.0 mg/kg/injection, schedule: Q01DX005 (ip), vehicle: saline)?
The T/C was 121 % of control.

What about the T/C (dose: 40.0 mg/kg/injection, schedule: Q01DX001 (ip), vehicle: saline) of the same compound?
Its T/C is 197 % of control.

And the T/C (dose: 40.0 mg/kg/injection, schedule: Q01DX005 (ip), vehicle: saline)?
The T/C was 250 % of control.

What about the T/C (dose: 40.0 mg/kg/injection, schedule: Q04DX003 (ip), vehicle: saline) of the same compound?
The T/C was 214 % of control.

And the T/C (dose: 50.0 mg/kg/injection, schedule: Q04DX003 (ip), vehicle: Klucel (hydroxypropylcellulose) (HPC))?
Its T/C is 150 % of control and 174 % of control.

And the T/C (dose: 50.0 mg/kg/injection, schedule: Q04DX003 (ip), vehicle: saline)?
Its T/C is 192 % of control.

And the T/C (dose: 60.0 mg/kg/injection, schedule: Q01DX001 (ip), vehicle: saline)?
Its T/C is 218 % of control and 224 % of control.

And the T/C (dose: 64.0 mg/kg/injection, schedule: Q04DX003 (ip), vehicle: Klucel (hydroxypropylcellulose) (HPC))?
Its T/C is 163 % of control.

What about the T/C (dose: 64.0 mg/kg/injection, schedule: Q04DX003 (ip), vehicle: saline) of the same compound?
Its T/C is 166 % of control and 201 % of control.

What about the T/C (dose: 80.0 mg/kg/injection, schedule: Q01DX001 (ip), vehicle: saline) of the same compound?
The T/C was 241 % of control.

What about the T/C (dose: 96.0 mg/kg/injection, schedule: Q04DX003 (ip), vehicle: saline) of the same compound?
The T/C was 152 % of control and 153 % of control.

What about the T/C (dose: 100.0 mg/kg/injection, schedule: Q01DX001 (ip), vehicle: saline) of the same compound?
The T/C was 210 % of control.

And the T/C (dose: 100.0 mg/kg/injection, schedule: Q04DX003 (ip), vehicle: Klucel (hydroxypropylcellulose) (HPC))?
Its T/C is 176 % of control and 178 % of control.

What about the T/C (dose: 128.0 mg/kg/injection, schedule: Q04DX003 (ip), vehicle: saline) of the same compound?
The T/C was 173 % of control and 186 % of control.

What about the T/C (dose: 167.0 mg/kg/injection, schedule: Q01DX001 (ip), vehicle: saline) of the same compound?
Its T/C is 216 % of control.

And the T/C (dose: 192.0 mg/kg/injection, schedule: Q04DX003 (ip), vehicle: saline)?
The T/C was 150 % of control.

What about the T/C (dose: 200.0 mg/kg/injection, schedule: Q04DX003 (ip), vehicle: Klucel (hydroxypropylcellulose) (HPC)) of the same compound?
Its T/C is 157 % of control.

Which results are given for `O=C(Nc1ccc(F)cc1F)Oc1cccc2cccnc12`?
T/C (dose: 50.0 mg/kg/injection, schedule: Q01DX009 (ip), vehicle: Klucel (hydroxypropylcellulose) (HPC)): 114 % of control; T/C (dose: 100.0 mg/kg/injection, schedule: Q01DX009 (ip), vehicle: Klucel (hydroxypropylcellulose) (HPC)): 112 % of control
